{
  "source": "paper PMC11189555",
  "about": "“Aryl amino acetamides prevent Plasmodium falciparum ring development via targeting the lipid-transfer protein PfSTART1” (Nature Communications, 2024)",
  "key": {"[1]": {"tested_on": "P. falciparum NF54 gametocytes fed to An. stephensi", "assay": "Standard membrane feeding assay (London School of Hygiene and Tropical Medicine)", "format": "in vivo, Plasmodium falciparum", "conditions": "W-991 1, 50, 100 nM; second insectary; Fig S7C-D", "procedure": "These assays were performed at the Walter and Eliza Hall Institute and at the London School of Hygiene and Tropical Medicine using slightly different approaches which are described in the Supplementary Information. […]\nGametocyte culturing and standard membrane feeding assay (London School of Hygiene and Tropical Medicine). P. falciparum NF54 gametocytes were prepared for blood-feeding to mosquitoes according to the method described by 13, with some slight modifications. Briefly, gametocyte cultures seeded at 2% overall parasitaemia and 4% haematocrit were maintained at 37 °C for 17 days with daily media changes.\nGametocyte functional viability was assessed by ex-flagellation assay at day 14 post induction, observed by light microscopy. An. stephensi (SD500 strain) were reared as […]\nGametocyte aliquots from a single NF54 culture, produced as above, were incubated […]\nor culture medium only (no -drug control) from day 14 until day 17 when SMFA was carried out. Fresh drug -containing media was provided each day during this exposure.\nPots of 70 -80 two- to five-day old female An. stephensi mosquitoes were allowed to feed on 500 µL of the respective culture+drug mixture, presented to each pot in a pre - heated 3D -printed water channel membrane feeder 15, until fully fed. […]"}, "[2]": {"target": "T1, recombinant PfSTART1(N330K) (I149-V394) (Plasmodium falciparum, UniProt Q8I298, N330K)", "T1 construct": "8xHis tag (N); TEV protease cleavage site (N); made in house; host or cells: Sf21 insect cells (baculovirus)", "T1 sequence (Q8I298 149-394 N330K)": "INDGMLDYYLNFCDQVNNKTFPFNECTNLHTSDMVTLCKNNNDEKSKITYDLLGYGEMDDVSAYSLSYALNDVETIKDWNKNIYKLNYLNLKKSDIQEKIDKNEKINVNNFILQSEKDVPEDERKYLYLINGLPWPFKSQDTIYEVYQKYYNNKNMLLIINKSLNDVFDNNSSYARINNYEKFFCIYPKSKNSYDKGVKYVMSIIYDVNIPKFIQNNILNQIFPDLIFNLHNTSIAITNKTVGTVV", "assay": "Isothermal titration calorimetry", "format": "binding", "conditions": "for Differential Power DP_Y / ΔH NDH_Y: PfSTART(N330K), ITC replicate data", "source_text": "S. frugiperda codon optimised full-length N309K and N330K PfSTART1 mutants were first synthesised by Integrated DNA Technologies, and then I149 forward and V394 reverse primers utilised to clone the same I149-V394 construct boundaries into the modified pAcGP67a expression vector with a N-terminal GP67-signal sequence, 8xHis tag, and TEV protease cleavage site. As a result of the subcloning, SSG was removed upstream of the TEV cleavage site. Construct boundaries and incorporation of the N309K and N330K mutations was verified by Sanger sequencing. The PfSTART1 mutants were expressed and purified as per wild-type PfSTART1.\nITC experiments were performed on a MicroCal PEAQ-ITC calorimeter at 25 °C, with a stirring speed of 750 rpm and a reference power of 5 μcal/sec. 500 μM M-833 series inhibitor solutions were diluted to 10 μM in 50 mM NaPO4^-3 (pH 7.4), 150 mM NaCl with a final DMSO concentration of 2% (v/v) (cell sample). PfSTART1 protein was dialysed extensively against 50 mM NaPO4^-3 (pH 7.4), 150 mM NaCl, before diluting to 90 μM in the same buffer with 2% (v/v) DMSO (syringe sample). The first injection was 0.4 μL over a 0.8 s duration, and the remaining 19 injections were 2 μL of 4 s duration, with 150 s injection spacing. Data were collected and analysed using the PEAQ-ITC software (MicroCal) and fit by a single site binding model. A fitted offset (constant control heat) was also applied to the integrated heat."}},
  "data": [
    {"smiles": "CC(C)(Nc1ccc(Cl)c(S(=O)(=O)N2CCOCC2)c1)C(=O)Nc1ccc(F)c(Cl)c1", "note": "[W-991]", "values": [
      {"measurement": "transmission to mosquitoes", "setting": "[1]", "value": "reduction in transmission"},
      {"measurement": "interaction with PfSTART1(N330K)", "setting": "[2]; ITC", "value": "no interaction"},
      {"measurement": "Differential Power DP_Y", "setting": "[2]; DP_X 0.083333", "value": -0.001242},
      {"measurement": "Differential Power DP_Y", "setting": "[2]; DP_X 0.1", "value": -0.0011},
      {"measurement": "ΔH NDH_Y", "setting": "[2]; NDH_X 0.104703", "value": -2.588},
      {"measurement": "ΔH NDH_Y", "setting": "[2]; NDH_X 0.192876", "value": -2.749}
    ]}
  ]
}
